Counter-ions that a name gives are not always drawn. Some results are limits rather than exact numbers.

The assay concerns HCT116. Particulars: 72 h. Summed up:
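Luminescence was read with CellTiter-Glo in HCT116 cells seeded at 250 per well in 1536-well plates. Signals were scaled between vehicle at 0% and positive control at -100%, then pattern-corrected. IC50 and maximal efficacy were obtained by fitting a four-parameter Hill equation.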

Consider `C[C@H](CN1CCCC1)C(=O)c1ccc(C(F)(F)F)cc1` [Lanperisone hydrochloride], for which the IC50 cell viability by setting is: (ICRF193 0 nM) > 45.8 µM; (ICRF193 200 nM) > 45.8 µM.

For the compound `CC(Cc1ccc(O)cc1)NCC(O)c1cc(O)cc(O)c1` (configuration not stated) [Fenoterol hydrobromide], the IC50 cell viability is > 45.8 µM (ICRF193 0 nM) and > 45.8 µM (ICRF193 200 nM).

For `NC(=O)Cc1cccc(C(=O)c2ccccc2)c1N` [Nepafenac], the IC50 cell viability reads like this: (ICRF193 0 nM) > 45.8 µM; (ICRF193 200 nM) > 45.8 µM.

Regarding `Oc1cccc2cccnc12` [8-Quinolinol Salicylic acid (1:1)], the IC50 cell viability reads like this: (ICRF193 0 nM) > 45.8 µM; (ICRF193 200 nM) > 45.8 µM.

Turning to `CC1=C(C/C=C(\C)CCC[C@H](C)CCC[C@H](C)CCCC(C)C)C(=O)c2ccccc2C1=O` [Phytonadione], the IC50 cell viability runs as follows: (ICRF193 0 nM) > 45.8 µM; (ICRF193 200 nM) > 45.8 µM.

Regarding `COc1ccc([C@@H]2CC(=O)c3c(O)cc(O[C@@H]4O[C@H](CO[C@@H]5O[C@@H](C)[C@H](O)[C@@H](O)[C@H]5O)[C@@H](O)[C@H](O)[C@H]4O)cc3O2)cc1O` [Aurantiamarin (Methyl Hesperidin)], the IC50 cell viability (ICRF193 0 nM) was > 45.8 µM and the IC50 cell viability (ICRF193 200 nM) was > 45.8 µM.

Regarding `CC[N+](C)(C)c1cccc(O)c1` [Edrophonium chloride], the IC50 cell viability (ICRF193 0 nM) is > 45.8 µM and the IC50 cell viability (ICRF193 200 nM) is > 45.8 µM.

As for `CC1(C)S[C@@H]2[C@H](NC(=O)COc3ccccc3)C(=O)N2[C@H]1C(=O)O` [PENICILLIN V POTASSIUM], the IC50 cell viability is, setting by setting: (ICRF193 0 nM) > 45.8 µM; (ICRF193 200 nM) > 45.8 µM.

On to `CC(C)(C)NCC(O)COc1cccc2c1CC(O)C(O)C2` (configuration not stated) [Nadolol], for which the IC50 cell viability (ICRF193 0 nM) was > 45.8 µM and the IC50 cell viability (ICRF193 200 nM) is > 45.8 µM.

As to `Cc1ccc2c(n1)Oc1ccc(C(C)C(=O)OCC(=O)N(C)C)cc1C2` (configuration not stated) [Mepranoprofen arbamel], the IC50 cell viability is, setting by setting: (ICRF193 0 nM) > 45.8 µM; (ICRF193 200 nM) > 45.8 µM.

Consider `O=C(OOC(=O)c1ccccc1)c1ccccc1` [Benzoyl peroxide], for which the IC50 cell viability by setting is: (ICRF193 0 nM) > 45.8 µM; (ICRF193 200 nM) > 45.8 µM.

Turning to `CCCc1nc2c(C)cc(-c3nc4ccccc4n3C)cc2n1Cc1ccc(-c2ccccc2C(=O)O)cc1` [Telmisartan], the IC50 cell viability is, setting by setting: (ICRF193 0 nM) > 45.8 µM; (ICRF193 200 nM) > 45.8 µM.

In the case of `CCCCCCCCCCCCCCCCCC(=O)OCC(C)O` (configuration not stated) [Octadecanoic acid, monoester with 1,2-propanediol], the IC50 cell viability reads like this: (ICRF193 0 nM) > 45.8 µM; (ICRF193 200 nM) > 45.8 µM.

With `CCCCCCCN(CC)CCCC(O)c1ccc(NS(C)(=O)=O)cc1` (configuration not stated) [Ibutilide fumarate], the IC50 cell viability is > 45.8 µM (ICRF193 0 nM) and > 45.8 µM (ICRF193 200 nM).

Take `FC(F)(F)C(F)(F)C(F)(F)C(F)(F)C(F)(F)F` [Perflenapent]: the IC50 cell viability by setting is: (ICRF193 0 nM) > 45.8 µM; (ICRF193 200 nM) > 45.8 µM.

For the compound `NS(=O)(=O)c1cc2c(cc1Cl)NC(C1CC3C=CC1C3)NS2(=O)=O` (configuration not stated) [Cyclothiazide], the IC50 cell viability (ICRF193 0 nM) was > 45.8 µM and the IC50 cell viability (ICRF193 200 nM) was > 45.8 µM.

For the compound `OC[C@@H](O)[C@@H](O[C@@H]1O[C@H](CO)[C@H](O)[C@H](O)[C@H]1O)[C@H](O)[C@@H](O)CO` [Lactitol], the IC50 cell viability was > 45.8 µM (ICRF193 0 nM) and > 45.8 µM (ICRF193 200 nM).

As for `CN(C)[C@@H]1C(O)=C(C(=O)NCN2CCCC2)C(=O)[C@@]2(O)C(O)=C3C(=O)c4c(O)cccc4[C@@](C)(O)[C@H]3C[C@@H]12` [Rolitetracycline], the IC50 cell viability is, setting by setting: (ICRF193 0 nM) > 45.8 µM; (ICRF193 200 nM) > 45.8 µM.

As to `CCCCC(CC)COc1ccc(-c2nc(-c3ccc(OC)cc3)nc(-c3ccc(OCC(CC)CCCC)cc3O)n2)c(O)c1` (configuration not stated) [BEMOTRIZINOL], the IC50 cell viability is, setting by setting: (ICRF193 0 nM) > 45.8 µM; (ICRF193 200 nM) > 45.8 µM.

On to `N#C/C(=C1/SCC(c2ccccc2Cl)S1)n1ccnc1` (configuration not stated) [Lanoconazole], for which the IC50 cell viability was > 45.8 µM (ICRF193 0 nM) and > 45.8 µM (ICRF193 200 nM).

For `CC(=O)Nc1ccc(S(=O)(=O)Nc2ccc([N+](=O)[O-])cc2)cc1` [Sulfanitran], the IC50 cell viability (ICRF193 0 nM) was > 45.8 µM and the IC50 cell viability (ICRF193 200 nM) was > 45.8 µM.

Consider `Cc1ccc(C(=O)c2ccc(CC(=O)O)n2C)cc1` [Tolmetin sodium dihydrate], for which the IC50 cell viability was > 45.8 µM (ICRF193 0 nM) and > 45.8 µM (ICRF193 200 nM).

On to `C[C@H]1NCc2cc(-c3ccc4c(=O)c(C(=O)O)cn(C5CC5)c4c3OC(F)F)ccc21` [Garenoxacin mesylate hydrate], for which the IC50 cell viability (ICRF193 0 nM) is > 45.8 µM and the IC50 cell viability (ICRF193 200 nM) was > 45.8 µM.

On to `CC(OC(=O)NCC1(CC(=O)O)CCCCC1)OC(=O)C(C)C` (configuration not stated) [GABAPENTIN ENACARBIL], for which the IC50 cell viability runs as follows: (ICRF193 0 nM) > 45.8 µM; (ICRF193 200 nM) > 45.8 µM.

`CN(C)C(=O)COC(=O)Cc1ccc(OC(=O)c2ccc(NC(=N)N)cc2)cc1` [Camostat]: the IC50 cell viability reads like this: (ICRF193 0 nM) > 45.8 µM; (ICRF193 200 nM) > 45.8 µM.

For the compound `CCOC(=O)[C@H](CS)NCCN[C@@H](CS)C(=O)OCC` [Bicisate dihydrochloride], the IC50 cell viability (ICRF193 0 nM) was > 45.8 µM and the IC50 cell viability (ICRF193 200 nM) is > 45.8 µM.

The record behind these values is the supplement of paper PMC12137928.
